Reference: patent publication US6906098B2, “Mixed steroidal 1,2,4,5-tetraoxane compounds and methods of making and using thereof” (priority 2002, dated 2005)
≈ marks a conversion by molar mass, not a printed value. Read-outs that look alike come from different tables or passages of the source.

Key:
[1] = tested on: D6 and W2 P. falciparum clones; format: cell-based, Plasmodium falciparum; conditions: for Resistance Index: IC50 (W2)/IC50 (D6) ratio; for times more active than bis(1,1-dioxy-2-methylcyclohexane): antimalarial activity versus literature tetraoxane
[2] = tested on: Plasmodium falciparum chloroquine-resistant strain W2; experiment: microbe, parasite or virus in culture; format: cell-based; conditions: for Strain W2 IC50: growth inhibition, chloroquine-resistant strain W2, 66 h incubation; for IC50: Plasmodium falciparum, W2, 66 h, read-out: Strain W2 IC50, growth inhibition, chloroquine-resistant strain W2, 66 h incubation
[3] = tested on: lung NCI-H460, breast MCF7, CNS SF-268; experiment: 3-cell line one dose primary anticancer assay (NCI); format: cell-based, human; conditions: growth percentage after 48 hours, at 100 μM
Experimental: In preliminary tests, four compounds (1B14a, 1C44, 1C45, and 1C46) were chosen by NIH-NCI for in vitro screening. See Drug discovery and development program, National Cancer Institute, Bethesda, (NCI), http://dtp.nci.nih.gov. All tetraoxanes were evaluated in the 3-cell line (lung—NCI-H460, breast—MCF7, CNS-SF-268) one dose primary anticancer assay: growth percentage after 48 hours, at 100 μM concentration of tested compound. Two compounds were eliminated at this step (1B14a and 1C46), while the acid 1C44 and primary amide 1C45 were evaluated against the full panel of 60 human tumor cell lines starting with 10^−4 M concentration of investigated compounds.

[4] = tested on: Mycobacterium tuberculosis H37Rv (ATCC 27294); experiment: Primary screen, Microplate Alamar Blue Assay (MABA), percent inhibition; format: cell-based; conditions: Mycobacterium tuberculosis, primary screening at 6.25 μg/ml
In short: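 Single-concentration screen at 6.25 μg/ml (or molar equivalent of the heaviest congener in a series) against H37Rv grown in BACTEC 12B medium. Growth read by Microplate Alamar Blue Assay, reported as percent inhibition.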

[5] = tested on: M. tuberculosis H37Rv; experiment: Minimum inhibitory concentration (MIC) in the MABA; format: cell-based, Mycobacterium tuberculosis; conditions: Mycobacterium tuberculosis, H37RV
In short: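 Run under the NIAID TAACF screening program against M. tuberculosis by fluorescence read-out. MIC taken as the lowest concentration giving 90% reduction in fluorescence relative to controls.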

[6] = tested on: Plasmodium falciparum chloroquine-susceptible strain D6; experiment: In vitro antimalarial drug susceptibility assay (radiolabeled hypoxanthine incorporation), strain D6; format: cell-based; conditions: for Strain D6 IC50: growth inhibition, chloroquine-susceptible strain D6, 66 h incubation; for IC50: Plasmodium falciparum, D6, 66 h, read-out: Strain D6 IC50, growth inhibition, chloroquine-susceptible strain D6, 66 h incubation
[7] = tested on: red blood cell (RBC) membrane; experiment: Hemolytic activity test; conditions: initial experiments
[8] = tested on: standard panel of 12 tumor cell lines in hollow fibers (IP and SC implants); experiment: Hollow Fiber Assay; format: in vivo, mice
Experimental: Generally, as a preliminary in vivo screening tool, the following assay is conducted. A standard panel of 12 tumor cell lines were used for the routine hollow fiber screening of the in vitro activities. These include NCI-H23, NCI-H522, MDA-MB-231, MDA-MB-435, SW-620, COLO 205, LOX, UACC-62, OVCAR-3, OVCAR-5, U251 and SF-295 according to conventional methods known in the art. See e.g. Hollingshead, M., et al. (1995) Life Sciences 57:131-141, which is herein incorporated by reference. The cell lines are cultivated in RPMI-1640 containing 10% FBS and 2 mM glutamine. On the day preceeding hollow fiber preparation, the cells are given a supplementation of fresh medium to maintain log phase growth. […] On the day of implantation, samples of each tumor cell line preparation are quantitated for viable cell mass by a stable endpoint MTT assay so that the time zero cell mass is known. […] The optical density of each sample is determined spectrophotometrically at 540 nm and the mean of each treatment group is calculated. The percent net growth for each cell line in each treatment group is calculated and compared to the percent net growth in the vehicle treated controls.
A 50% or greater reduction in percent net growth in the treated samples compared to the vehicle control samples is considered a positive result. […] A compound is referred for xenograft testing if it has a combined IP+SC score of 20 or greater, a SC score of 8 or greater, or produces cell kill of any cell line at either dose level evaluated.

[9] = tested on: M. avium strains 100, 101, 108, 109, 116; experiment: M. avium MIC, Microtiter; format: cell-based, Mycobacterium avium
[10] = Table 5, Alamar assay, read-out: % Inhib
[11] = Table 5, Alamar assay, M. tuberculosis H37Rv, read-out: MIC

Compound | melting point [°C] | Resistance Index [1] | inhibition at 6.25 µg/mL [4, 10] [%] | MIC [5, 11] [mg/L] | IC50 [2] [mg/L] | IC50 [6] [mg/L] | also measured
CCCNC(=O)CC[C@@H](C)[C@H]1CC[C@H]2[C@@H]3[C@H](OC(C)=O)C[C@@H]4CC(OO)(OO)CC[C@]4(C)[C@H]3C[C@H](OC(C)=O)[C@]12C | 120 to 129 | – | – | – | – | – | –
COC(=O)CCC(C)[C@H]1CCC2C3C(C[C@H](OC(C)=O)[C@@]21C)[C@@]1(C)CCC2(C[C@H]1C[C@H]3OC(C)=O)OOC1(CCC(c3ccccc3)CC1)OO2 (single isomer, unassigned) [Compound 1B14a, Methyl 7α,12α-diacetoxy-5β-cholan-24-oate-3-spiro-6′-(1′,2′,4′,5′-tetraoxacyclohexane)-3′-spiro-1″-((4″R or S)- and (4″S or R)-phenyl)cyclohexane] | – | 0.93 | 37 | > 6.25 | – | – | Strain W2 IC50 [2]: 0.01172 mg/L; outcome of one dose primary anticancer assay [3]: eliminated; inhibition at 6.25 µg/mL ([4]; Table 3, H37Rv, read-out: Inhibition (%)): 37%; MIC ([5]; Table 3, H37Rv, read-out: MIC): > 6.25 mg/L; Strain D6 IC50 [6]: 0.01256 mg/L
CNC(=O)CCC(C)[C@H]1CCC2C3C(C[C@H](OC(C)=O)[C@@]21C)[C@@]1(C)CCC2(C[C@H]1C[C@H]3OC(C)=O)OOC1(CCC(c3ccccc3)CC1)OO2 (single isomer, unassigned) [Compound 1C46, N-Methyl-7α,12α-Diacetoxy-5β-cholan-24-amide-3-spiro-6′-(1′,2′,4′,5′-tetraoxacyclohexane)-3′-spiro-1″-((4″R or S)-phenyl)cyclohexane] | – | 0.79 | 71 | > 6.25 | – | – | Strain W2 IC50 [2]: 0.00696 mg/L; outcome of one dose primary anticancer assay [3]: eliminated; inhibition at 6.25 µg/mL ([4]; Table 3, H37Rv): 71%; MIC ([5]; Table 3): 6.25 mg/L (≈ 8.8 µM); Strain D6 IC50 [6]: 0.00883 mg/L
COC(=O)CCC(C)[C@H]1CCC2C3C(C[C@H](OC(C)=O)[C@@]21C)[C@@]1(C)CCC2(C[C@H]1C[C@H]3OC(C)=O)OOC1(CCCCC1C)OO2 (stereo partly drawn) [8d/1B06, Methyl 7α,12α-Diacetoxy-5β-cholan-24-oate-3-spiro-6′-(1′,2′,4′,5′-tetraoxacyclohexane)-3′-spiro-1″-(2″-methyl)cyclohexane] | 204 to 207 | 0.58 | 29 | > 6.25 | 0.0102 (≈ 0.0156 µM) | 0.0175 (≈ 0.027 µM) | times more active than bis(1,1-dioxy-2-methylcyclohexane) [1]: about 2 times
COC(=O)CCC(C)[C@H]1CCC2C3C(C[C@H](OC(C)=O)[C@@]21C)[C@@]1(C)CCC2(C[C@H]1C[C@H]3OC(C)=O)OOC1(OO2)C(C)CCCC1C (stereo partly drawn) [8e/1B07, Methyl 7α,12α-diacetoxy-5β-cholan-24-oate-3-spiro-6′-(1′,2′,4′,5′-tetraoxacyclohexane)-3′-spiro-1″-(2″,6″-dimethyl)cyclohexane] | 213 to 215 | 11.45 | 0 | > 6.25 | 0.237 (≈ 0.357 µM) | 0.0207 (≈ 0.0312 µM) | antimalarial activity in words ([1]; D6 and W2 clones, Table 2): inactive
CCCNC(=O)CCC(C)[C@H]1CCC2C3C(C[C@H](OC(C)=O)[C@@]21C)[C@@]1(C)CCC2(C[C@H]1C[C@H]3OC(C)=O)OOC1(CCCCC1)OO2 (stereo partly drawn) [11/1C20, N-(n-Propyl)-7α,12α-diacetoxy-5β-cholan-24-amide-3-spiro-6′-(1′,2′,4′,5′-tetraoxacyclohexane)-3′-spirocyclohexane] | – | 0.46 | 88 | > 6.25 | 0.0045 (≈ 0.0068 µM) | 0.00977 (≈ 0.0148 µM) | red blood cell (RBC) membrane lysis [7]: no red blood cell (RBC) membrane lysis; Total Score ([8]; combined IP+SC, maximum possible 96): 20; IP score ([8]; intraperitoneal implants, agent by intraperitoneal injection at 2 dose levels, daily for 4 days): 18; SC score ([8]; subcutaneous implants): 2
CC(=O)O[C@H]1CC2C(C3CC[C@H](C(C)CCC(N)=O)[C@]31C)[C@H](OC(C)=O)C[C@@H]1CC3(CC[C@]21C)OOC1(CCCCC1C)OO3 (stereo partly drawn) [13/1C22, 7α,12α-Diacetoxy-5β-cholan-24-amide-3-spiro-6′-(1′,2′,4′,5′-tetraoxacyclohexane)-3′-spiro-1″-(2″-methyl)cyclohexane] | – | 0.64 | 100 | 0.2 (≈ 0.316 µM) | 0.00705 (≈ 0.0111 µM) | 0.011 (≈ 0.0173 µM) | times more active than bis(1,1-dioxy-2-methylcyclohexane) [1]: ca. 3.5 times; MIC ([9]; M. avium strain 101, MIC dilution 0.25-32): >32 mg/L; MIC ([9]; M. avium strain 108, MIC dilution 0.25-32): >32 mg/L; MIC ([9]; M. avium strain 109, MIC dilution 0.25-32): >32 mg/L; MIC ([9]; M. avium strain 116, MIC dilution 0.25-32): >32 mg/L; MIC ([9]; Mycobacterium avium, M. avium strain 100, MIC dilution 0.25-32, read-out: MIC): > 32 mg/L
